Test results reported in article PMC10994559 (PLOS Neglected Tropical Diseases, 2024).
Read-outs that look alike come from different tables or passages of the source.

Legend:
L. major promastigotes = assay: L. major promastigote viability, resazurin reduction; format: cell-based, Leishmania major; details: for viability at 25 µM: Leishmania major, read-out: viability, L.major promastigote (25 µM)
Excerpt: (§1) The infectivity of the parasites was boosted by passaging in Balb/c mice and culturing the infected lymph nodes after six weeks. L. infantum (MHOM / BR / 76 / M4192) parasite was passaged in the same media formulation with 0.5% urine.

[1] = system: L. infantum promastigotes; assay: L. infantum promastigote viability, resazurin reduction; format: cell-based, Leishmania infantum; details: sheet LTC_compound_viability, value ± spread; for viability at 2.5 µM / viability at 25 µM: Leishmania infantum; for viability at 2.5 µM: read-out: viability, L. infantum promastigote (2.5 µM); for viability at 25 µM: read-out: viability, L. infantum promastigote (25 µM)
Excerpt: as §1

[2] = system: L. major axenic amastigotes; assay: L. major axenic amastigote viability, resazurin reduction; details: for viability at 25 µM: read-out: viability, L.major amastigote (25 µM)
Method: L. major LV561(MHOM/IL/67/LRC-L137 JERICHO II) amastigotes were passaged in Grace insect medium supplemented with NaHCO3, 0.1% amikin and 20% of FCS (pH: 5.4) and kept at 33°C.
Exponential growth phase promastigotes of L. major or L. infantum and axenic amastigotes (L. major) were harvested and seeded in 384 well plates (white, non-transparent, tissue culture treated, flat bottom; Corning) (0.5x10^5 cells per well). Compounds were pre-dispensed into the plate with an Echo 650 acoustic dispenser (Beckman Coulter). After 72h incubation, resazurin was added (1:10 v/v) from a […] stock in PBS, followed by incubation for six hours. Then, fluorescence intensity was measured using a microplate reader (Synergy H1, BioTek) with excitation filter: 550 nm and emission filter: 590 nm. Efficient compounds were selected for the next round of viability assay with 2.5 μM concentrations of the compounds. […] All experiments were performed with AmB as a positive control drug in parallel.
Axenic amastigotes, the relevant form that persists in the infected host, were generated in the lab through established procedures, employing harsh pH (pH 5) and high temperature (33°C) conditions.

[3] = system: intracellular L. infantum amastigotes; assay: Parasite rescue assay (intramacrophage, J774 infected with L. infantum); format: cell-based, Leishmania infantum
Method: After 24 h incubation, cells were washed five times with serum free RPMI and exposed to a serial dilution of test compounds, prepared using an acoustic dispenser (Echo 650, Labcyte), in RPMI (2% FCS). After two days, cells were washed thrice, and 20 μl of 0.05% SDS in RPMI was added upon removal of the supernatant. Upon incubation under orbital shaking for 30 seconds, cell lysis was stopped by addition of 180 μl M199 medium supplemented with 10% FCS. […] Then, fluorescence intensity of the samples was measured with a microplate reader (Synergy H1, BioTek) with λEx: 550 nm and λEm: 590 nm. Percent of viability was calculated according to cell only and media controls.
J774A.1 cells (J774) were infected with L. infantum metacyclic promastigotes. […] After controlled lysis of the infected macrophages, the released parasites were quantified using a resazurin based viability assay.

T. brucei brucei BSF = assay: T. brucei BSF viability, resazurin reduction; format: cell-based, Trypanosoma brucei brucei; details: for viability at 25 µM: read-out: viability, T.brucei (25 µM)
Method: T. brucei brucei (strain 427 Lister) blood stream form (BSF) parasites were passaged in complete HMI-9 media supplemented with 10% FCS, Pen-Strep (0.1%) and 2-mercaptoethanol (0.014 v/v) and kept in a 37° C CO2 incubator in filter-cap flasks.
(§2) Viability of T. brucei brucei BSF and T. cruzi trypomastigotes was assayed with fluorescence resazurin reduction assay, essentially as described above. […] Next, selected compounds were tested at 2.5 μM concentration, and promising compounds subjected to 18 concentrations dose response analyses. AN3057 and AmB were used as a control drug in T. brucei and T. cruzi, respectively.

T. cruzi trypomastigotes = assay: T. cruzi viability, resazurin reduction; format: cell-based, Trypanosoma cruzi; details: for viability at 2.5 µM / viability at 25 µM: Trypanosoma cruzi; for viability at 2.5 µM: read-out: viability, T.cruzi (2.5 µM); for viability at 25 µM: read-out: viability, T.cruzi (25 µM)
Method: T. cruzi (Y strain) trypomastigotes were passaged in liver infusion broth media supplemented with tryptose, NaCl, Na2HPO4, KCl, glucose, hemin, Pen-Strep (1%), 10% FCS (pH: 7.2) and kept at 28°C.
as §2

E. histolytica = E. histolytica viability, ATP luminescence (Cell titer glo); format: cell-based, Entamoeba histolytica; details: for viability at 2.5 µM / viability at 25 µM: Entamoeba histolytica; for viability at 2.5 µM: read-out: viability, E.histolytica (2.5 µM); for viability at 25 µM: read-out: viability, E.histolytica (25 µM)
Outline: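 E. histolytica strain B2-5 at 2.5x10^4 cells/ml was exposed to compound for 48 h at 37 °C under anaerobic conditions, with viability read as ATP luminescence (CellTiter-Glo). The primary screen used 25 μM in triplicate, and follow-up potency runs used 9–16-point ranges spanning 0.01–100 μM.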

[4] = Cytotoxicity assay J774, resazurin reduction; format: cell-based, murine; details: mouse, J774 macrophage cells; for viability at 72 h, 2.5 µM: read-out: viability, J774 (2.5 µM); for viability at 72 h, 25 µM: read-out: viability, J774 (25 µM)
Method: (§3) Mammalian cell lines (J774 and HepG2) were passaged in RPMI media supplemented with MEM, Pen-Strep (1%) and 10% FCS. Cultures were kept at 37°C incubator with 5% CO2 in filter-cap flasks.
(§4) Murine macrophage cells (J774) and human hepatocyte carcinoma HepG2 cells were seeded at 0.5x10^5 cell/well in 384 well plates in triplicate, exposed to serial dilution of compounds, dispensed using an Echo 650 acoustic dispenser (Labcyte). After incubation for 72 h at 37°C, 5% CO2, cell viability was determined using fluorescence resazurin reduction assay (λEx: 550 nm; λEm: 590 nm).

[5] = system: Murine macrophage cells (J774); assay: Cytotoxicity assay J774, resazurin reduction; format: cell-based; details: for EC50: cytotoxicity, 72 h
Method: as §3, §4

[6] = system: intracellular L. infantum amastigotes; assay: Parasite rescue assay (intramacrophage, J774 infected with L. infantum); format: cell-based, Leishmania infantum; details: for viability at 25 µM: J774, 25 µM, intracellular amastigote, read-out: viability, intracellular L. major amastigote (25 µM)
[7] = Trypanosoma brucei, 2.5 µM, read-out: viability, T.brucei (2.5 µM)
[8] = Trypanosoma brucei, 72 h, read-out: Residual viability, T.brucei (2.5 µM), BSF, 2.5 µM, 72 h

| Compound | viability at 25 µM (L. major promastigotes; 72 h) [%] | viability at 25 µM (L. major promastigotes; 25 µM) [%] | viability at 2.5 µM ([1]; 2.5 µM) [%] | viability at 25 µM ([1]; 25 µM) [%] | viability at 25 µM ([2]; Leishmania major) [%] | viability at 2.5 µM (T. brucei brucei BSF; [7]) [%] | viability at 25 µM (T. brucei brucei BSF; Trypanosoma brucei, 25 µM) [%] | viability at 2.5 µM (T. cruzi trypomastigotes; 2.5 µM) [%] | viability at 25 µM (T. cruzi trypomastigotes; 25 µM) [%] | viability at 2.5 µM (E. histolytica) [%] | viability at 25 µM (E. histolytica) [%] | viability at 72 h, 2.5 µM [4] [%] | viability at 72 h, 25 µM [4] [%] | viability at 25 µM [6] [%] | viability at 2.5 µM (T. brucei brucei BSF; [8]) [%] | melting point [°C] | other results |
| --- | --- | --- | --- | --- | --- | --- | --- | --- | --- | --- | --- | --- | --- | --- | --- | --- | --- |
| CC(C)(C)OC(=O)NC(Cc1ccccc1)C(O)CNc1ccc(C(C)(C)C)cc1 (stereo not drawn) [LTC-1035] | 89.5 ± 1.08 | 2.19 ± 1.75 | 68.3 ± 1.6 | 0.84 ± 0.54 | 27.7 ± 0.6 | 71.2 ± 5.31 | 2.22 ± 0.96 | 63.9 ± 2.75 | 25.6 ± 1.61 | 48.5 ± 2.26 | 101 ± 21.2 | 92.3 ± 5.33 | 95.4 ± 11.3 | 11.4 ± 1.86 |  |  | viability at 2.5 µM ([2]; Leishmania major, read-out: viability, L.major amastigote(2.5 µM)): 71.4 ± 0.91%; EC50 ([3]; Leishmania infantum, J774, read-out: EC50 L. infantum rescue assay, intramacrophage (J774), 18 concentrations): 6.7 ± 1.7 µM; EC50 ([3]; read-out: EC50 L. infantum rescue assay, intramacrophage (J774), 18 concentrations): 6.67 ± 1.7 µM; EC50 (T. brucei brucei BSF; Trypanosoma brucei, read-out: EC50 T. brucei BSF, dose response, triplicate, ± SD (Table 2) / ± SE (S3 Table)): 2.9 ± 1.7 µM; EC50 ([5]; Mus musculus, J774, 72 h): > 25 µM; EC50 [5]: > 16 µM |
| N[C@@H](Cc1ccccc1)[C@@H](O)CNc1cccc(C(F)(F)F)c1 [LTC-1029, (2S,3S)-3-Amino-4-phenyl-1-((3-(trifluoromethyl)phenyl)amino)butan-2-ol] | 88.9 ± 5.45 | -0.13 ± 0.19 | 82.2 ± 2.25 | 0.37 ± 0.05 | 67.9 ± 2.07 | -0.97 ± 0.28 | 2.21 ± 0.85 | 56.8 ± 2.34 | 6.68 ± 2.95 | 70.3 ± 18.1 | 15.4 ± 5.25 | 94.9 ± 4.03 | 91.9 ± 10.1 | 76.8 ± 12.2 | < 10 | 72 to 74 |  |
| N[C@@H](Cc1ccccc1)[C@@H](O)CNc1ccc(F)cc1F [LTC-1032, (2S,3S)-3-Amino-1-((2,4-difluorophenyl)amino)-4-phenylbutan-2-ol] | 86.3 ± 2.23 | 0.57 ± 0.34 | 84.1 ± 3.01 | 9.17 ± 0.49 | 76 ± 0.96 | -0.94 ± 0.33 | 2.18 ± 0.88 | 59.8 ± 1.24 | 29 ± 1.22 | 56.3 ± 3.32 | 118 ± 17.6 | 96.3 ± 3.07 | 96.6 ± 11.9 | 73 ± 5.58 | < 10 | 89 to 91 |  |
| N[C@@H](Cc1ccccc1)[C@@H](O)CNc1ccc(OC(F)(F)F)cc1 [LTC-1028, (2S,3S)-3-Amino-4-phenyl-1-((4-(trifluoromethoxy)phenyl)amino)butan-2-ol] | 81.6 ± 2 | 0.32 ± 0.34 | 78.3 ± 1.53 | 0.58 ± 0.24 | 59.3 ± 3.42 | 19.7 ± 4.81 | 2.01 ± 0.92 | 61 ± 0.78 | 12.4 ± 0.9 | 71.9 ± 4.72 | 37.8 ± 19.9 | 97.4 ± 5.26 | -0.47 ± 0.78 | 79.1 ± 22 |  | 112 to 114 |  |
| CC(=O)c1ccc(NC[C@H](O)[C@@H](N)Cc2ccccc2)cc1 [LTC-1031, 1-(4-(((2S,3S)-3-Amino-2-hydroxy-4-phenylbutyl)amino)phenyl)ethan-1-one] | 91.6 ± 2.08 | 62.7 ± 3.51 | 83.7 ± 2.96 | 44.9 ± 6.2 | 70.9 ± 2.23 | 75.5 ± 4.37 | 2.18 ± 0.95 | 58.4 ± 1.11 | 59.3 ± 2.74 | 74.1 ± 12.7 | 105 ± 18.2 | 95.4 ± 4.41 | -0.69 ± 0.73 | 98 ± 5.56 |  | 123 to 125 |  |
| LTC-4 |  |  |  |  |  |  |  |  |  |  |  |  |  |  |  |  | viability, L.major promastigote (25 µM) (L. major promastigotes; 25 µM): 1.56±2.86; viability, L.major promastigote (25 µM) (L. major promastigotes; head prints 25 µM, second of two columns with this head): 60.14±7.43; viability, L. infantum promastigote (2.5 µM) ([1]; 2.5 µM): 85.51±1.79; viability, L. infantum promastigote (25 µM) ([1]; 25 µM): 24.04±0.45; viability, L.major amastigote (25 µM) ([2]; 25 µM): 76.6±1.33; viability, T.brucei (2.5 µM) (T. brucei brucei BSF; 2.5 µM): 100.44±5.5; viability, T.brucei (25 µM) (T. brucei brucei BSF; 25 µM): 89.28±12.34; viability, T.cruzi (2.5 µM) (T. cruzi trypomastigotes; 2.5 µM): 57.84±2.64; viability, T.cruzi (25 µM) (T. cruzi trypomastigotes; 25 µM): 58.59±2.21; viability, E.histolytica (2.5 µM) (E. histolytica; 2.5 µM): 68±7.58; viability, E.histolytica (25 µM) (E. histolytica; 25 µM): 71.3±5.74; viability, J774 (2.5 µM) ([5]; 2.5 µM): 100.11±5.45; viability, J774 (25 µM) ([5]; 25 µM): 144.21±37.63; viability, intracellular L. major amastigote (25 µM) ([6]; 25 µM): 76.09±31.52 |
